Laboratory results reported in ChEMBL document CHEMBL1201862, “PubChem BioAssay data set” (2004).
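Exposure lasted 48 hours, with cells grown in 96-well plates and compounds tested at five concentrations. The concentration for 50% growth inhibition is given as GI50.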 The source made the active and inactive calls. No stated cut-off is given here; in the data, active = GI50 up to about 1.1 µM and inactive = higher.

Legend:
Test in all cases: NCI anticancer screen, dose series, 48 h
SF-268 = tested on: SF-268
EKVX = tested on: EKVX
RXF 393 = tested on: RXF 393
U-251 = tested on: U-251
OVCAR-8 = tested on: OVCAR-8
T47D = tested on: T47D
KM12 = tested on: KM12
HOP-92 = tested on: HOP-92
A498 = tested on: A498
CAKI-1 = tested on: CAKI-1
MDA-MB-231 = tested on: MDA-MB-231
MOLT-4 = tested on: MOLT-4
SK-MEL-5 = tested on: SK-MEL-5
MDA-MB-435 = tested on: MDA-MB-435
NCI-H23 = tested on: NCI-H23
UACC-62 = tested on: UACC-62
MDA-N = tested on: MDA-N
COLO 205 = tested on: COLO 205
OVCAR-3 = tested on: OVCAR-3
NCI/ADR-RES = tested on: NCI/ADR-RES

| Compound | GI50 (SF-268) | GI50 (EKVX) | GI50 (RXF 393) | GI50 (U-251) | GI50 (OVCAR-8) | GI50 (T47D) | GI50 (KM12) | GI50 (HOP-92) | GI50 (A498) | GI50 (CAKI-1) | GI50 (MDA-MB-231) | GI50 (MOLT-4) | GI50 (SK-MEL-5) | GI50 (MDA-MB-435) | GI50 (NCI-H23) | GI50 (UACC-62) | GI50 (MDA-N) | GI50 (COLO 205) | GI50 (OVCAR-3) | GI50 (NCI/ADR-RES) |
| --- | --- | --- | --- | --- | --- | --- | --- | --- | --- | --- | --- | --- | --- | --- | --- | --- | --- | --- | --- | --- |
| CC(C)C[C@H](NC(=O)[C@@H](Cc1cccc2ccccc12)NC(=O)N1CCOCC1)B(O)O | 2.96 µM (inactive) | 14.3 µM (inactive) | 2.4 µM (inactive) | 4.57 µM (inactive) | 16.7 µM (inactive) | 2.45 µM (inactive) | 5.13 µM (inactive) | 2.67 µM (inactive) | 4.05 µM (inactive) | 11.1 µM (inactive) | 4.48 µM (inactive) | 3.2 µM (inactive) | 3.13 µM (inactive) | 1.92 µM (inactive) | 2.9 µM (inactive) | 4.02 µM (inactive) | 2.59 µM (inactive) | 16.4 µM (inactive) | 2.61 µM (inactive) | 51.4 µM (inactive) |
| c1ccc(CN2CCc3[nH]c4ccccc4c3C2)cc1 | 43.8 µM (inactive) | 46.5 µM (inactive) | 34.7 µM (inactive) | 21.4 µM (inactive) | 46.1 µM (inactive) | 14.9 µM (inactive) | 22.5 µM (inactive) | 18 µM (inactive) | 26.6 µM (inactive) | 36.5 µM (inactive) | 26.7 µM (inactive) | 22.2 µM (inactive) | 16.9 µM (inactive) | 22.9 µM (inactive) | 59.2 µM (inactive) | 26.1 µM (inactive) | 22.1 µM (inactive) | 16.9 µM (inactive) | 33 µM (inactive) | 36.1 µM (inactive) |
| O=C(O)C(Oc1nc(S)nc(S)n1)(c1ccc(Cl)cc1)c1ccc(Cl)cc1 | > 100 µM (inactive) | > 100 µM (inactive) | > 100 µM (inactive) | > 100 µM (inactive) | > 100 µM (inactive) | > 100 µM (inactive) | > 100 µM (inactive) | > 100 µM (inactive) | > 100 µM (inactive) | > 100 µM (inactive) | > 100 µM (inactive) | > 100 µM (inactive) | > 100 µM (inactive) | > 100 µM (inactive) | > 100 µM (inactive) | > 100 µM (inactive) | > 100 µM (inactive) | > 100 µM (inactive) | > 100 µM (inactive) | > 100 µM (inactive) |
| N#Cc1c(SCc2ccccc2)nc(-c2ccccc2)[nH]c1=S | 22 µM (inactive) | 31.5 µM (inactive) | 19.2 µM (inactive) | 21.4 µM (inactive) | 27.6 µM (inactive) | 22.4 µM (inactive) | 17.4 µM (inactive) | 31.6 µM (inactive) | 27.3 µM (inactive) | 33.3 µM (inactive) | 37.4 µM (inactive) | 29 µM (inactive) | 19.3 µM (inactive) | 24 µM (inactive) | 18.2 µM (inactive) | 21.7 µM (inactive) | 22.6 µM (inactive) | 17.1 µM (inactive) | 18.5 µM (inactive) | 23.5 µM (inactive) |
| COC(=O)CCc1cc(OC)c2oc(-c3ccc(OC)c(OC)c3)c(CO)c2c1 | > 100 µM (inactive) | > 100 µM (inactive) |  | > 100 µM (inactive) | > 100 µM (inactive) | 86.7 µM (inactive) | > 100 µM (inactive) | > 100 µM (inactive) | > 100 µM (inactive) | > 100 µM (inactive) | > 100 µM (inactive) | 95.5 µM (inactive) | > 100 µM (inactive) | > 100 µM (inactive) | > 100 µM (inactive) | > 100 µM (inactive) | > 100 µM (inactive) | > 100 µM (inactive) | > 100 µM (inactive) | > 100 µM (inactive) |
| COc1cc(C#CC(=O)OC/C=C/c2ccc3c(c2)OCO3)cc(OC)c1OC | 19.5 µM (inactive) | 31.6 µM (inactive) | 12.3 µM (inactive) | 29.4 µM (inactive) | 29.1 µM (inactive) | 59.6 µM (inactive) | 30.4 µM (inactive) | 17.8 µM (inactive) | 5.53 µM (inactive) | 22.1 µM (inactive) | 25.8 µM (inactive) |  | 17.5 µM (inactive) | 18.5 µM (inactive) | 25.2 µM (inactive) | 18.8 µM (inactive) | 18.5 µM (inactive) | 19.1 µM (inactive) | 26.5 µM (inactive) | 20 µM (inactive) |
| CN[C@@H](C)[C@H](OP(=O)(O)OC1[C@@H](O)[C@H](O)C(O)[C@H](O)[C@@H]1O)c1ccccc1 (stereo partly specified) | > 100 µM (inactive) | > 100 µM (inactive) |  | > 100 µM (inactive) | > 100 µM (inactive) | > 100 µM (inactive) | > 100 µM (inactive) | > 100 µM (inactive) | > 100 µM (inactive) | > 100 µM (inactive) | > 100 µM (inactive) | > 100 µM (inactive) | > 100 µM (inactive) | > 100 µM (inactive) | > 100 µM (inactive) | > 100 µM (inactive) | > 100 µM (inactive) | > 100 µM (inactive) | > 100 µM (inactive) | > 100 µM (inactive) |
| COc1ccc(C2Oc3ccc(Cl)cc3C=C2[N+](=O)[O-])cc1OC (stereo unspecified) | 0.617 µM (active) | 2.72 µM (inactive) | 1.59 µM (inactive) | 1.05 µM (active) | 1.12 µM (active) | 1.52 µM (inactive) | 1.48 µM (inactive) | 1.88 µM (inactive) | 3.37 µM (inactive) | 1.67 µM (inactive) | 1.27 µM (inactive) | 0.216 µM (active) | 1.53 µM (inactive) | 0.15 µM (active) | 1.61 µM (inactive) | 1.5 µM (inactive) | 0.231 µM (active) | 1.16 µM (inactive) | 0.719 µM (active) | 0.456 µM (active) |
| O=S1(=O)NC2CCC3NS(=O)(=O)NC4CCC(N1)N4S(=O)(=O)N23 (stereo unspecified) | > 100 µM (inactive) | > 100 µM (inactive) | > 100 µM (inactive) | > 100 µM (inactive) | > 100 µM (inactive) | > 100 µM (inactive) | > 100 µM (inactive) | > 100 µM (inactive) | > 100 µM (inactive) | > 100 µM (inactive) | > 100 µM (inactive) |  | > 100 µM (inactive) | > 100 µM (inactive) | > 100 µM (inactive) | > 100 µM (inactive) | > 100 µM (inactive) | > 100 µM (inactive) | > 100 µM (inactive) | > 100 µM (inactive) |
| NCCOc1cccc(C2(N3CCCCC3)CCCCC2)c1 | 25.6 µM (inactive) | 21.5 µM (inactive) | 22 µM (inactive) | 18.2 µM (inactive) | 33.4 µM (inactive) | 52.6 µM (inactive) | 45.3 µM (inactive) | 0.773 µM (active) | 30 µM (inactive) | 94 µM (inactive) | 21 µM (inactive) | 19.4 µM (inactive) | 16.5 µM (inactive) | 17.1 µM (inactive) | > 100 µM (inactive) | 20.2 µM (inactive) | 18.5 µM (inactive) | 12.3 µM (inactive) | 34.2 µM (inactive) | > 100 µM (inactive) |
| Nc1nc(N)c(C2=CCN(Cc3ccccc3)CC2)c(=O)[nH]1 | > 100 µM (inactive) | > 100 µM (inactive) | > 100 µM (inactive) | > 100 µM (inactive) | > 100 µM (inactive) | > 100 µM (inactive) | > 100 µM (inactive) | > 100 µM (inactive) | > 100 µM (inactive) | > 100 µM (inactive) | > 100 µM (inactive) | > 100 µM (inactive) | > 100 µM (inactive) | > 100 µM (inactive) | > 100 µM (inactive) | > 100 µM (inactive) | > 100 µM (inactive) | > 100 µM (inactive) | > 100 µM (inactive) | > 100 µM (inactive) |
| O=CCC1CCCCC1 | > 100 µM (inactive) | > 100 µM (inactive) | > 100 µM (inactive) |  |  | > 100 µM (inactive) | 88.7 µM (inactive) | > 100 µM (inactive) | > 100 µM (inactive) | > 100 µM (inactive) | > 100 µM (inactive) | > 100 µM (inactive) | > 100 µM (inactive) | > 100 µM (inactive) | > 100 µM (inactive) |  | > 100 µM (inactive) | > 100 µM (inactive) | > 100 µM (inactive) | > 100 µM (inactive) |
| O=C(NC(Nc1ccc(F)c(Cl)c1)(C(F)(F)F)C(F)(F)F)C(C(F)(F)F)C(F)(F)F | 29.1 µM (inactive) | 68.4 µM (inactive) | 23.2 µM (inactive) | 29.2 µM (inactive) | 25.9 µM (inactive) | 44.3 µM (inactive) | 17.9 µM (inactive) | 29.2 µM (inactive) | 44.3 µM (inactive) | 32.4 µM (inactive) | 28.3 µM (inactive) | 15 µM (inactive) | 21.4 µM (inactive) | 26.5 µM (inactive) | 23.3 µM (inactive) |  | 28.5 µM (inactive) | 28.5 µM (inactive) | 26.9 µM (inactive) | 19.8 µM (inactive) |
| NCCc1ccc(S(=O)(=O)O)cc1[N+](=O)[O-] | > 100 µM (inactive) | > 100 µM (inactive) | > 100 µM (inactive) | > 100 µM (inactive) | > 100 µM (inactive) | > 100 µM (inactive) | > 100 µM (inactive) | > 100 µM (inactive) | > 100 µM (inactive) | > 100 µM (inactive) | > 100 µM (inactive) |  | > 100 µM (inactive) | > 100 µM (inactive) | > 100 µM (inactive) | > 100 µM (inactive) | > 100 µM (inactive) | > 100 µM (inactive) | > 100 µM (inactive) | > 100 µM (inactive) |
